Assay results from US20190076384A1, “METHODS FOR TREATING UREA CYCLE DISORDERS” (priority 2017, published 2019).
Like-named read-outs stand apart in the source and are kept apart here.

Assays:
CYP2C9 [1] = molecular target: T1, CYP2C9 (Homo sapiens, UniProt P11712); assay: clinical; conditions: both, human, plasma, oral, 200 mg
Method: (§1) Methodology: This was an open-label, 2-period, monosequence crossover, drug-drug interaction (DDI) study of RAVICTI and celecoxib in healthy male and female subjects.
(§2) Test Product, Dose, Duration, and Mode of Administration: In Treatment A (Period 1), subjects received 200 mg celecoxib (1×200 mg capsule) administered orally with approximately 240 mL of water following an overnight fast and approximately 5 minutes prior to the start of a standard breakfast on Day 1.
(§3) Pharmacokinetics: Blood samples (4 mL) for the analysis of plasma celecoxib were collected on Days 1 (Period 1) and 4 (Period 2) at the following time points: predose (Hour 0) and 1, 2, 3, 4, 6, 8, 12, 16, 24, 36, 48, 60, and 72 hours postdose. A blood sample (6 mL) for CYP2C9 genotyping was collected at screening to exclude any subjects with a slow metabolizer genotype (i.e., CYP2C9*2/*2, CYP2C9*2/*3, CYP2C9*1/*3, and CYP2C9*3/*3). PK parameters for celecoxib in plasma were computed following Day 1 (Period 1) and Day 4 (Period 2) blood draws and included AUC0-t, AUC0-inf, AUC%extr, Cmax, tmax, t1/2, kel, and CL/F.
(§4) Pharmacokinetics: The possible DDI was examined between co-administration of RAVICTI and celecoxib (Treatment B, test) and celecoxib administered alone (Treatment A, reference). An analysis of variance (ANOVA) was performed with treatment as a fixed effect and subject as a random effect. Data for AUC0-t, AUC0-inf, and Cmax, as appropriate, were ln-transformed prior to analysis. The 90% confidence intervals (CIs) of the test group means relative to the reference group means were obtained by taking the antilog of the corresponding 90% CIs for the differences between the means on the log scale, i.e., ratio of geometric least-squares (LS) means.

Cytochrome P450 2C9 = Cytochrome P450 2C9 (Homo sapiens, UniProt P11712); assay: clinical; conditions: 200 mg celecoxib with RAVICTI 4 mL three times a day for 6 days, fed conditions
Chain of Cytochrome P450 2C9 (P11712 whole entry): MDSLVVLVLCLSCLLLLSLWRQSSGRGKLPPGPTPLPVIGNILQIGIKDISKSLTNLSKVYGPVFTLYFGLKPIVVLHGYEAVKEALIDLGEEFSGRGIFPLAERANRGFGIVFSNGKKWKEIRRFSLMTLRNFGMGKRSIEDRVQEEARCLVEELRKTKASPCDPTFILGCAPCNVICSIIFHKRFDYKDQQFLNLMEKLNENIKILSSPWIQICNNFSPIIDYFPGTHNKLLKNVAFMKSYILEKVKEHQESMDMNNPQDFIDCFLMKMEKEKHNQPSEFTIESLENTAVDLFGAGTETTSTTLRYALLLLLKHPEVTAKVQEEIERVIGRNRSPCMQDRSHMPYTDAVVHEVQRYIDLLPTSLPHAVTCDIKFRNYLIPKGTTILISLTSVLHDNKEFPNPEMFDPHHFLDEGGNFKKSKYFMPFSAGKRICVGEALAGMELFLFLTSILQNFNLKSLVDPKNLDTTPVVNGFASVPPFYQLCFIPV
Method: as §1, §2, §3, §4

CYP1A2 = molecular target: T2, CYP1A2 (Homo sapiens, UniProt P05177); assay type: in vitro ADME; conditions: for % Inhibition: 7-ethoxyresorufin-O-deethylase
T2 construct: from tissue; host or cells: human liver microsomes
T2 sequence (P05177 1-516): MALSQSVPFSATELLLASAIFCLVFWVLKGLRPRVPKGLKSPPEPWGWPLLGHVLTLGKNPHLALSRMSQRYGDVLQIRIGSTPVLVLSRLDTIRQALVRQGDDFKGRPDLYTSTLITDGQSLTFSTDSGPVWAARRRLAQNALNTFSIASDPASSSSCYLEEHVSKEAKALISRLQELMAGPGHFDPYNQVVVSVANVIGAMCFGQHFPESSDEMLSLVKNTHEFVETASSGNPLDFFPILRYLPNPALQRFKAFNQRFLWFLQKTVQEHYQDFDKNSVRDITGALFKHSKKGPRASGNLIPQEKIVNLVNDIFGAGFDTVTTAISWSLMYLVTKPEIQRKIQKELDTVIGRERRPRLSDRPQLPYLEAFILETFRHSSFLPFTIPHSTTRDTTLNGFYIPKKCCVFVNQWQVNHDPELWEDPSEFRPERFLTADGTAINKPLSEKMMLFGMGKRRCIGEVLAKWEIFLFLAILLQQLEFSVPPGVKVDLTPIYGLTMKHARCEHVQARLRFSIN

CYP2C8 = molecular target: T3, CYP2C8 (Homo sapiens, UniProt P10632); assay: In vitro CYP inhibition study, human liver microsomes, CYP2C8; assay type: in vitro ADME; conditions: for % Inhibition: Taxol 6α-hydroxylase
T3 construct: from tissue; host or cells: human liver microsomes
T3 sequence (P10632 1-490): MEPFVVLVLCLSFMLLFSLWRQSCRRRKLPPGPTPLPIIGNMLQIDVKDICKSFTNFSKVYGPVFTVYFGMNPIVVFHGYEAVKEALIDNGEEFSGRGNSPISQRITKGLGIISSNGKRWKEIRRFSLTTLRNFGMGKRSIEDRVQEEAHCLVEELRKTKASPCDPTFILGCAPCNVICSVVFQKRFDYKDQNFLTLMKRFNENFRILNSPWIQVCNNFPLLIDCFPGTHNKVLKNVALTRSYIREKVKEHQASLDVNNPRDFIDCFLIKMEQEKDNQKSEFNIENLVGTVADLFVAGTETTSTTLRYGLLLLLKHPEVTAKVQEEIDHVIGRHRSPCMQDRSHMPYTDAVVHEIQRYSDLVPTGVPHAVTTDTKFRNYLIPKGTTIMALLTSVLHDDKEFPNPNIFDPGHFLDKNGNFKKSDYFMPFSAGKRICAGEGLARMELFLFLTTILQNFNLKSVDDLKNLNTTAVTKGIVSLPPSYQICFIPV

CYP2C19 = molecular target: T4, CYP2C19 (Homo sapiens, UniProt P33261); assay type: in vitro ADME; conditions: for % Inhibition: S-Mephenytoin 4′-hydroxylase
T4 construct: from tissue; host or cells: human liver microsomes
T4 sequence (P33261 whole entry): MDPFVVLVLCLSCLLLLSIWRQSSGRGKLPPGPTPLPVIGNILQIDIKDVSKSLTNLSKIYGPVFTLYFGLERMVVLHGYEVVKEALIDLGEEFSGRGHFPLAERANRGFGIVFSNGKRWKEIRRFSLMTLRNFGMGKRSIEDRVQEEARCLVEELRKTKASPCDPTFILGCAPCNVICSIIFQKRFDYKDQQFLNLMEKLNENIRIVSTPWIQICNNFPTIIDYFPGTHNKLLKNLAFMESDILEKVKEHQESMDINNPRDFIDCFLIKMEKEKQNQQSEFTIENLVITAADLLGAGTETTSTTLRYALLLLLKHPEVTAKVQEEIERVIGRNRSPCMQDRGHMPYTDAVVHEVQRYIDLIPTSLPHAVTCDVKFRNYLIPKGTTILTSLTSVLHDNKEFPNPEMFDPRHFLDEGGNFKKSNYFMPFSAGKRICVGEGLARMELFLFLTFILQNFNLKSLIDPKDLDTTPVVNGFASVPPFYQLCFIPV

CYP3A4/5 [2] = assay type: in vitro ADME, human
CYP3A4/5 [3] = tested on: CYP3A4/5
[4] = Mean peak concentration of PBA and PAA in different patient populations
Cytochrome P450 3A4 = Cytochrome P450 3A4 (Homo sapiens, UniProt P08684); assay: clinical; conditions: for overall 1′-OH-midazolam exposure (based on AUC) increased by: free+conjugates
Chain of Cytochrome P450 3A4 (P08684 whole entry): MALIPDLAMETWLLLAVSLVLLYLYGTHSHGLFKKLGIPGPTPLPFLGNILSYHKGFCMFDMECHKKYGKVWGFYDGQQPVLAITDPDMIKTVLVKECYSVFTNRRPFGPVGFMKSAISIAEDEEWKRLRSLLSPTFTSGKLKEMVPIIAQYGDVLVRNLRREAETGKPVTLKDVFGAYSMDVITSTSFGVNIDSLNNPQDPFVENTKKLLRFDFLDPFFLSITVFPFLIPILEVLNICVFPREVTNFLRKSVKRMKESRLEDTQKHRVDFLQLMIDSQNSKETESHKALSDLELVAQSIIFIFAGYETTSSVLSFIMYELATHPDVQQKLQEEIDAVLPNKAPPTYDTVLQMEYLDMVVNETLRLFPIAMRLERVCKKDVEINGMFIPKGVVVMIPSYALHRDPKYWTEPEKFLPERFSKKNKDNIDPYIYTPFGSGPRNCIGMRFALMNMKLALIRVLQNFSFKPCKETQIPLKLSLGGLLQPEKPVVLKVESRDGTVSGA
Method: (§5) Methodology: This was a Phase 1, open-label, monosequence crossover, drug-drug interaction study of RAVICTI® and midazolam in healthy male and female subjects.
(§6) Single doses of midazolam HCl syrup (2 mg/mL) were administered in the morning following an approximate 10-hour fast on Days 1 and 5 (coadministered with RAVICTI® on Day 5) just prior to administration of breakfast (˜5 minutes before breakfast).
(§7) Pharmacokinetics: Blood samples for the analysis of plasma midazolam and its metabolite (1′-OH-midazolam, free+conjugates) levels were collected via an indwelling catheter and/or via direct venipuncture. Blood samples were collected on Days 1 and 5 at the following time points: predose, 0.5, 1, 2, 3, 4, 6, 8, 10, 12, 16, and 24 hours postdose. In addition, five plasma PK samples for GPB analysis were collected on Day 4 at the following time points: at 1 minute, 30 minutes, and 1 hour following the first morning dose of RAVICTI; at 30 minutes and 1 hour post second dose of RAVICTI.
(§8) Pharmacokinetics: The possible drug-drug interaction was examined between coadministration of RAVICTI and midazolam (test) and midazolam administered alone (reference). An analysis of variance (ANOVA), with treatment as a fixed effect and subject as a random effect, was performed. Data for Cmax, AUC0-t, and AUC0-∞, as appropriate, were natural log (ln)-transformed prior to analysis. The 90% confidence intervals (CIs) of the test group means relative to the reference group means were obtained by taking the antilog of the corresponding 90% CIs for the differences between the means on the log scale, i.e., ratio of geometric least-squares (LS) means.

CYP2C9 [5] = molecular target: T1, CYP2C9; conditions: for % Inhibition: Diclofenac 4′-hydroxylase, 20.7 mM (2.818 mg/ml)
CYP2D6 = CYP2D6 (Homo sapiens, UniProt P10635); conditions: for % Inhibition: Bufuralol 1′-hydroxylase, 20.7 mM (2.818 mg/ml)
Chain of CYP2D6 (P10635 whole entry): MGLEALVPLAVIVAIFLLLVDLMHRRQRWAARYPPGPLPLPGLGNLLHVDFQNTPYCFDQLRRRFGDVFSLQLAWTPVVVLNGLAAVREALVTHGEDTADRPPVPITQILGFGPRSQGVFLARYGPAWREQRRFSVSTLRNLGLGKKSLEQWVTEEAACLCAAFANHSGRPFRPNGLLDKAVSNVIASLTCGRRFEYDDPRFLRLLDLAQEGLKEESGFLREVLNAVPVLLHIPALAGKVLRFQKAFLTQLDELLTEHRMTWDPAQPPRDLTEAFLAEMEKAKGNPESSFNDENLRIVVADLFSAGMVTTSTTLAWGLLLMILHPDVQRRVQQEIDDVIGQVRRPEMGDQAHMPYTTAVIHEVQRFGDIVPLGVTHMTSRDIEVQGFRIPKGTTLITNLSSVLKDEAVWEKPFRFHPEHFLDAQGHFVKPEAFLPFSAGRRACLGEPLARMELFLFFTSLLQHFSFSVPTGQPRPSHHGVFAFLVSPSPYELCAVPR

CYP3A4/5 [6] = assay: Induction of CYP3A4/5 in cultured human hepatocytes; conditions: for Relative potency (%): PAA 20.7 mM; for Fold induction: PAA 20.7 mM (concentration of maximum fold induction)
CYP2C9 [7] = molecular target: T1, CYP2C9; assay: In vitro CYP inhibition study, human liver microsomes, CYP2C9
CYP3A4 = CYP3A4 (Homo sapiens, UniProt P08684); assay: clinical; conditions: both, human, in vivo, 3 mg
Chain of CYP3A4 (P08684 whole entry): as the sequence (P08684 whole entry) above
Method: as §5, §6, §7, §8

[8] = 5 mM, pre-incubation time 0 min
[9] = 5 mM, pre-incubation time 30 min
[10] = after RAVICTI 4 mL three times a day for 3 days, fed conditions, healthy subjects
[11] = upon coadministration with multiple-dose RAVICTI
[12] = 20.7 mM (2.818 mg/ml), pre-incubation time 0 min
[13] = 20.7 mM (2.818 mg/ml), pre-incubation time 30 min
[14] = at a concentration higher than the observed plasma concentrations

T1 sequence (P11712 whole entry): as the sequence (P11712 whole entry) above

## Cc1ccc(-c2cc(C(F)(F)F)nn2-c2ccc(S(N)(=O)=O)cc2)cc1 [Celecoxib, celecoxib]
CYP2C9 [1]
  AUC(0-inf): 5440 ng·h/mL
  AUC(0-t): 5170 ng·h/mL
  Cmax: 620 ng/mL
Cytochrome P450 2C9
  mean AUC for celecoxib lower than celecoxib alone: 8%
  mean Cmax for celecoxib lower than celecoxib alone: 13%

## phenylbutyrate [PBA]
CYP1A2; 5 mM (0.821 mg/ml)
  inhibition of CYP1A2 (in words): did not inhibit
CYP1A2; [8]
  % Inhibition: 6%
CYP1A2; [9]
  % Inhibition: 2%
CYP2C8; 5 mM (0.821 mg/ml)
  inhibition of CYP2C8 (in words): did not inhibit
CYP2C8; [8]
  % Inhibition: 24%
CYP2C8; [9]
  % Inhibition: 27%
CYP2C19; 5 mM (0.821 mg/ml)
  inhibition of CYP2C19 (in words): did not inhibit
CYP2C19; [8]
  % Inhibition: 26%
CYP2C19; [9]
  % Inhibition: 19%
CYP3A4/5 [2]; Testosterone 6β-hydroxylase, 5 mM, pre-incubation time 0 min
  % Inhibition: 80%
CYP3A4/5 [2]; Testosterone 6β-hydroxylase, 5 mM, pre-incubation time 30 min
  % Inhibition: 85%
CYP3A4/5 [3]
  extent of induction lower compared to the positive control (rifampicin): about 50%
[4]; Cirrhotic - HE 9 ml BID
  PBA Mean peak concentration: 0.1412 mg/mL
[4]; Healthy volunteer
  PBA Mean peak concentration: 0.037 mg/mL
[4]; UCD adult
  PBA Mean peak concentration: 0.0701 mg/mL
[4]; UCD pediatric
  PBA Mean peak concentration: 0.0956 mg/mL

## OCc1ncc2n1-c1ccc(Cl)cc1C(c1ccccc1F)=NC2 [1′-OH-midazolam]
Cytochrome P450 3A4; [10]
  mean AUC for 1-hydroxy midazolam higher than midazolam alone: 58%
  mean Cmax for 1-hydroxy midazolam higher than midazolam alone: 28%
Cytochrome P450 3A4; [11]
  1′-OH-midazolam Cmax (peak exposure) increased by: 28%
  overall 1′-OH-midazolam exposure (based on AUC) increased by: approximately 60%
Cytochrome P450 3A4; upon coadministration with multiple-dose RAVICTI, listed as 1′-hydroxy-midazolam
  overall 1′-OH-midazolam exposure (based on AUC) increased by: 60%

## phenylacetate [PAA]
CYP1A2; [12]
  % Inhibition: 58%
CYP1A2; [13]
  % Inhibition: 47%
CYP1A2; at 20.7 mM
  inhibition of CYP1A2 (in words): inhibited
CYP2C8; [12]
  % Inhibition: 50%
CYP2C8; [13]
  % Inhibition: 49%
CYP2C8; at 20.7 mM
  inhibition of CYP2C8 (in words): inhibited
CYP2C19; [12]
  % Inhibition: 37%
CYP2C19; [13]
  % Inhibition: 37%
CYP2C19; at 20.7 mM
  inhibition of CYP2C19 (in words): inhibited
CYP3A4/5 [2]; Midazolam 1′-hydroxylase, 20.7 mM (2.818 mg/ml), pre-incubation time 0 min
  % Inhibition: 63%
CYP3A4/5 [2]; Midazolam 1′-hydroxylase, 20.7 mM (2.818 mg/ml), pre-incubation time 30 min
  % Inhibition: 65%
CYP3A4/5 [2]; Testosterone 6β-hydroxylase, 20.7 mM (2.818 mg/ml), pre-incubation time 0 min
  % Inhibition: 60%
CYP3A4/5 [2]; Testosterone 6β-hydroxylase, 20.7 mM (2.818 mg/ml), pre-incubation time 30 min
  % Inhibition: 63%
CYP3A4/5 [2]; at 20.7 mM
  inhibition of CYP3A4/5 (in words): inhibited
CYP3A4/5 [2]; [14]
  effect on CYP3A4 (in words): inhibitory effect
CYP2C9 [5]; pre-incubation time 0 min
  % Inhibition: 47%
CYP2C9 [5]; pre-incubation time 30 min
  % Inhibition: 44%
CYP2C9 [5]; at 20.7 mM
  inhibition of CYP2C9 (in words): inhibited
CYP2C9 [5]; [14]
  effect on CYP2C9 (in words): inhibitory effect
CYP2C9 [5]; based on mean peak PAA concentration in UCD patients
  [I]/Ki ratio, CYP2C9: < 0.1
CYP2D6; pre-incubation time 0 min
  % Inhibition: 49%
CYP2D6; pre-incubation time 30 min
  % Inhibition: 57%
CYP2D6; at 20.7 mM
  inhibition of CYP2D6 (in words): inhibited
CYP3A4/5 [6]; cultured human hepatocytes, PAA
  induction of CYP3A4/5: < 1.8 fold
CYP3A4/5 [6]; donor Hu0793
  Relative potency (%): 13.1%
  Fold induction: 1.4 fold
CYP3A4/5 [6]; donor Hu4156
  Relative potency (%): 18.2%
  Fold induction: 1.7 fold
CYP2C9 [7]
  Ki: 15.1 mM

## Cc1ncc2n1-c1ccc(Cl)cc1C(c1ccccc1F)=NC2 [Midazolam, midazolam]
CYP3A4
  AUC(0-inf): 67 ng·h/mL
  AUC(0-t): 64.7 ng·h/mL
  Cmax: 16.8 ng/mL
Cytochrome P450 3A4; [10]
  mean AUC for midazolam lower than midazolam alone: 32%
  mean Cmax for midazolam lower than midazolam alone: 25%
Cytochrome P450 3A4; [11]
  midazolam overall exposure reduced by: ~32%
  midazolam peak exposure reduced by: approximately 26%
Cytochrome P450 3A4; upon coadministration with multiple-dose RAVICTI, listed as midazolam
  midazolam peak exposure reduced by: 26%
